Results published in patent publication US11459318B2, “Pesticidally active pyrrole derivatives” (Syngenta Participations AG, priority 2017, dated 2022).

Columns and labels:
Assay type in all cases: in vivo
[1] = system: Diabrotica balteata (Corn root worm); experiment: Diabrotica balteata (Corn root worm), maize sprouts sprayed, L2 larvae mortality; conditions: 96 h, application rate of 200 ppm, L2 larvae on maize sprouts, assessed 4 days after infestation, read-out: control (mortality)
Protocol: Diabrotica balteata (Corn root worm):
Maize sprouts placed onto an agar layer in 24-well microtiter plates were treated with aqueous test solutions prepared from 10,000 ppm DMSO stock solutions by spraying. After drying, the plates were infested with L2 larvae (6 to 10 per well). The samples were assessed for mortality 4 days after infestation.

[2] = system: Euschistus heros (Neotropical Brown Stink Bug); experiment: Euschistus heros (Neotropical Brown Stink Bug): Feeding/contact activity; conditions: 120 h, application rate of 200 ppm, N2 nymphs on soybean leaves, assessed 5 days after infestation, read-out: control (mortality)
Protocol: Euschistus heros (Neotropical Brown Stink Bug): Feeding/contact activity Soybean leaves on agar in 24-well microtiter plates were sprayed with aqueous test solutions prepared from 10,000 ppm DMSO stock solutions. After drying the leaves were infested with N2 nymphs. The samples were assessed for mortality 5 days after infestation.

[3] = system: Myzus persicae (Green peach aphid); experiment: Myzus persicae (Green peach aphid): Feeding/Contact activity; conditions: foliar, 144 h, application rate of 200 ppm, aphid population of mixed ages on sunflower leaf discs, assessed 6 days after infestation, read-out: control (mortality)
Protocol: Myzus persicae (Green peach aphid): Feeding/Contact activity Sunflower leaf discs were placed onto agar in a 24-well microtiter plate and sprayed with aqueous test solutions prepared from 10,000 ppm DMSO stock solutions. After drying, the leaf discs were infested with an aphid population of mixed ages. The samples were assessed for mortality 6 days after infestation.

[4] = system: Plutella xylostella (Diamond back moth); experiment: Plutella xylostella (Diamond back moth): Feeding/contact activity; conditions: 120 h, application rate of 200 ppm, L2 larvae on artificial diet, assessed 5 days after infestation, read-out: control (mortality)
Protocol: Plutella xylostella (Diamond back moth): Feeding/contact activity
24-well microtiter plates with artificial diet were treated with aqueous test solutions prepared from 10,000 ppm DMSO stock solutions by pipetting. After drying, the plates were infested with L2 larvae (10 to 15 per well). The samples were assessed for mortality 5 days after infestation.

[5] = system: Spodoptera littoralis (Egyptian cotton leaf worm); experiment: Spodoptera littoralis (Egyptian cotton leaf worm): Feeding/contact activity; conditions: foliar, 72 h, application rate of 200 ppm, L1 larvae on cotton leaf discs, assessed 3 days after infestation, read-out: control (mortality)
Protocol: Spodoptera littoralis (Egyptian cotton leaf worm): Feeding/contact activity Cotton leaf discs were placed onto agar in 24-well microtiter plates and sprayed with aqueous test solutions prepared from 10,000 ppm DMSO stock solutions. After drying the leaf discs were infested with five L1 larvae. The samples were assessed for mortality 3 days after infestation.

[6] = system: Tetranychus urticae (Two-spotted spider mite); experiment: Tetranychus urticae (Two-spotted spider mite): Feeding/contact activity; conditions: foliar, 192 h, application rate of 200 ppm, mite population of mixed ages (mobile stages) on bean leaf discs, assessed 8 days after infestation, read-out: control (mortality)
Protocol: Tetranychus urticae (Two-spotted spider mite): Feeding/contact activity
Bean leaf discs on agar in 24-well microtiter plates were sprayed with aqueous test solutions prepared from 10,000 ppm DMSO stock solutions. After drying the leaf discs were infested with a mite population of mixed ages. The samples were assessed for mortality on mixed population (mobile stages) 8 days after infestation.

[7] = system: Thrips tabaci (Onion Thrips); experiment: Thrips tabaci (Onion Thrips): Feeding/Contact activity; conditions: foliar, 144 h, application rate of 200 ppm, thrips population of mixed ages on sunflower leaf discs, assessed 6 days after infestation, read-out: control (mortality)
Protocol: Thrips tabaci (Onion Thrips): Feeding/Contact activity
Sunflower leaf discs were placed on agar in 24-well microtiter plates and sprayed with aqueous test solutions prepared from 10,000 ppm DMSO stock solutions. After drying the leaf discs were infested with a thrips population of mixed ages. The samples were assessed for mortality 6 days after infestation.

Measured: mortality at 200 ppm

Cn1c(C(F)(C(F)(F)F)C(F)(F)F)cc(Br)c1-n1cc(-c2ccc(Cl)c(C(=O)NC3(C#N)CC3)c2)cn1 [Compound 2, 5-[1-[3-bromo-1-methyl-5-[1,2,2,2-tetrafluoro-1-(trifluoromethyl)ethyl]pyrrol-2-yl]pyrazol-4-yl]-2-chloro-N-(1-cyanocyclopropyl)benzamide]
≥ 80%: all assays above

Cn1c(C(F)(C(F)(F)F)C(F)(F)F)cc(Cl)c1-n1cc(-c2ccc(Cl)c(C(=O)NC3(C#N)CC3)c2)cn1 [Compound 9, 2-chloro-5-[1-[3-chloro-1-methyl-5-[1,2,2,2-tetrafluoro-1-(trifluoromethyl)ethyl]pyrrol-2-yl]pyrazol-4-yl]-N-(1-cyanocyclopropyl)benzamide]
≥ 80%: all assays above

Cn1c(C(F)(C(F)(F)F)C(F)(F)F)cc(C#N)c1-n1cc(-c2ccc(Cl)c(C(=O)NC3(C#N)CC3)c2)cn1 [Compound 10, 2-chloro-N-(1-cyanocyclopropyl)-5-[1-[3-cyano-1-methyl-5-[1,2,2,2-tetrafluoro-1-(trifluoromethyl)ethyl]pyrrol-2-yl]pyrazol-4-yl]benzamide]
≥ 80%: all assays above

Cc1cc(C(F)(C(F)(F)F)C(F)(F)F)n(C)c1-n1cc(-c2ccc(Cl)c(C(=O)NC3(C#N)CC3)c2)cn1 [Compound 11, 2-chloro-N-(1-cyanocyclopropyl)-5-[1-[1,3-dimethyl-5-[1,2,2,2-tetrafluoro-1-(trifluoromethyl)ethyl]pyrrol-2-yl]pyrazol-4-yl]benzamide]
not listed: [3]
≥ 80%: all other assays above

N#CC1(NC(=O)c2cc(-c3cnn(-c4c(Br)cc(C(F)(C(F)(F)F)C(F)(F)F)n4CF)c3)ccc2Cl)CC1 [Compound 12, 5-[1-[3-bromo-1-(fluoromethyl)-5-[1,2,2,2-tetrafluoro-1-(trifluoromethyl)ethyl]pyrrol-2-yl]pyrazol-4-yl]-2-chloro-N-(1-cyanocyclopropyl)benzamide]
≥ 80%: all assays above

Cn1c(C(F)(c2cc(F)cc(F)c2)C(F)(F)F)cc(Br)c1-n1cc(-c2ccc(Cl)c(C(=O)NC3(C#N)CC3)c2)cn1 (stereo not shown) [Compound 17, 5-[1-[3-bromo-5-[1-(3,5-difluorophenyl)-1,2,2,2-tetrafluoro-ethyl]-1-methyl-pyrrol-2-yl]pyrazol-4-yl]-2-chloro-N-(1-cyanocyclopropyl)benzamide]
not listed: [2] | [3]
≥ 80%: all other assays above

CCN(C(=O)c1cc(-c2cnn(-c3c(Br)cc(C(F)(C(F)(F)F)C(F)(F)F)n3C)c2)ccc1Cl)C1(C#N)CC1 [Compound 20, 5-[1-[3-bromo-1-methyl-5-[1,2,2,2-tetrafluoro-1-(trifluoromethyl)ethyl]pyrrol-2-yl]pyrazol-4-yl]-2-chloro-N-(1-cyanocyclopropyl)-N-ethyl-benzamide]
≥ 80%: all assays above

CN(C(=O)c1cc(-c2cnn(-c3c(Br)cc(C(F)(C(F)(F)F)C(F)(F)F)n3C)c2)ccc1Cl)C1(C#N)CC1 [Compound 21, 5-[1-[3-bromo-1-methyl-5-[1,2,2,2-tetrafluoro-1-(trifluoromethyl)ethyl]pyrrol-2-yl]pyrazol-4-yl]-2-chloro-N-(1-cyanocyclopropyl)-N-methyl-benzamide]
≥ 80%: all assays above

CC(C)n1c(C(F)(C(F)(F)F)C(F)(F)F)cc(Br)c1-n1cc(-c2ccc(Cl)c(C(=O)NC3(C#N)CC3)c2)cn1 [Compound 24, 5-[1-[3-bromo-1-isopropyl-5-[1,2,2,2-tetrafluoro-1-(trifluoromethyl)ethyl]pyrrol-2-yl]pyrazol-4-yl]-2-chloro-N-(1-cyanocyclopropyl)benzamide]
≥ 80%: all assays above

CC(C)(C)n1c(C(F)(C(F)(F)F)C(F)(F)F)cc(Br)c1-n1cc(-c2ccc(Cl)c(C(=O)NC3(C#N)CC3)c2)cn1 [Compound 25, 5-[1-[3-bromo-1-tert-butyl-5-[1,2,2,2-tetrafluoro-1-(trifluoromethyl)ethyl]pyrrol-2-yl]pyrazol-4-yl]-2-chloro-N-(1-cyanocyclopropyl)benzamide]
≥ 80%: all assays above

N#CC1(NC(=O)c2cc(-c3cnn(-c4c(Br)cc(C(F)(C(F)(F)F)C(F)(F)F)n4CC(F)(F)F)c3)ccc2Cl)CC1 [Compound 26, 5-[1-[3-bromo-5-[1,2,2,2-tetrafluoro-1-(trifluoromethyl)ethyl]-1-(2,2,2-trifluoroethyl)pyrrol-2-yl]pyrazol-4-yl]-2-chloro-N-(1-cyanocyclopropyl)benzamide]
≥ 80%: all assays above

Cn1c(C(F)(C(F)(F)F)C(F)(F)C(F)(F)F)cc(Br)c1-n1cc(-c2ccc(Cl)c(C(=O)NC3(C#N)CC3)c2)cn1 (stereo not shown) [Compound 27, 5-[1-[3-bromo-5-[1,2,2,3,3,3-hexafluoro-1-(trifluoromethyl)propyl]-1-methyl-pyrrol-2-yl]pyrazol-4-yl]-2-chloro-N-(1-cyanocyclopropyl)benzamide]
≥ 80%: all assays above

Cn1c(-n2cc(-c3ccc(Cl)c(C(=O)NC4(C#N)CC4)c3)cn2)ccc1C(F)(C(F)(F)F)C(F)(F)C(F)(F)F (stereo not shown) [Compound 28, 2-chloro-N-(1-cyanocyclopropyl)-5-[1-[5-[1,2,2,3,3,3-hexafluoro-1-(trifluoromethyl)propyl]-1-methyl-pyrrol-2-yl]pyrazol-4-yl]benzamide]
≥ 80%: all assays above

Cn1c(C(F)(C(F)(F)F)C(F)(F)F)cc(I)c1-n1cc(-c2ccc(Cl)c(C(=O)NC3(C#N)CC3)c2)cn1 [Compound 34, 2-chloro-N-(1-cyanocyclopropyl)-5-[1-[3-iodo-1-methyl-5-[1,2,2,2-tetrafluoro-1-(trifluoromethyl)ethyl]pyrrol-2-yl]pyrazol-4-yl]benzamide]
not listed: [3]
≥ 80%: all other assays above
